Measured values taken from ChEMBL document CHEMBL1201862, “PubChem BioAssay data set” (2004).
Calls of active or inactive are those of the source.

Key:
[1] = target: Sphingosine 1-phosphate receptor 5 (Homo sapiens, UniProt Q9H228); assay: S1P5 receptor agonists, human, late-stage follow-up, counter-screen for S1P4 agonist project, cell-based, fluorescence, set 2 (AID 504867); type: functional
[2] = target: Sphingosine 1-phosphate receptor 2 (Homo sapiens, UniProt O95136); assay: S1P2 receptor agonists, human, late-stage follow-up, counter-screen for S1P4 agonist project, cell-based, fluorescence, set 2 (AID 504873); type: functional
Chain of Sphingosine 1-phosphate receptor 2 (O95136 whole entry): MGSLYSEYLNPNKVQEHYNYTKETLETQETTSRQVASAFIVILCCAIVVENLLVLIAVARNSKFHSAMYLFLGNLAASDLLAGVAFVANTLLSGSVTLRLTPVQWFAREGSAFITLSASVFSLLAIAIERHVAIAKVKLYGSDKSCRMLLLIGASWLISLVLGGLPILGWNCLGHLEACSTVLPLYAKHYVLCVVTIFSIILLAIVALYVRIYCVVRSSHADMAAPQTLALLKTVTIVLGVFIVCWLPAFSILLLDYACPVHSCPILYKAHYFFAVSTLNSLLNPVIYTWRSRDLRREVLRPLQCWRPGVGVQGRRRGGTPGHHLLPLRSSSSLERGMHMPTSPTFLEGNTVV

[3] = target: Sphingosine 1-phosphate receptor 3 (Homo sapiens, UniProt Q99500); assay: Late-stage fluorescence-based dose-response cell-based counterscreen assay to identify agonists of the Sphingosine 1-Phosphate Receptor 4 (S1P4): Sphingosine 1-Phosphate Receptor 3 (S1P3) agonist assay Set 2.; type: functional
Chain of Sphingosine 1-phosphate receptor 3 (Q99500 whole entry): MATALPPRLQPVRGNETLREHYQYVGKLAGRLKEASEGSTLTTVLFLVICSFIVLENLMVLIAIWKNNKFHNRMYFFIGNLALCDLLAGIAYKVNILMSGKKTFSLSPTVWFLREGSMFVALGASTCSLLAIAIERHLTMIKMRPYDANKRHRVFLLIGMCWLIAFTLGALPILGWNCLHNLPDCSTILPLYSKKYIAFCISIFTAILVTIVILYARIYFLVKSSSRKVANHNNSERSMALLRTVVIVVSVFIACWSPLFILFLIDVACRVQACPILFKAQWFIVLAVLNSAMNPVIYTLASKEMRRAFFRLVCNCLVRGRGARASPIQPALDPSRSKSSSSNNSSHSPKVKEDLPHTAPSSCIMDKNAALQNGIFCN

[4] = target: Sphingosine 1-phosphate receptor 1 (Homo sapiens, UniProt P21453); assay: Late-stage fluorescence-based dose-response cell-based counterscreen assay to identify agonists of the Sphingosine 1-Phosphate Receptor 4 (S1P4): Sphingosine 1-Phosphate Receptor 1 (S1P1) agonist assay Set 2.; type: functional
Chain of Sphingosine 1-phosphate receptor 1 (P21453 whole entry): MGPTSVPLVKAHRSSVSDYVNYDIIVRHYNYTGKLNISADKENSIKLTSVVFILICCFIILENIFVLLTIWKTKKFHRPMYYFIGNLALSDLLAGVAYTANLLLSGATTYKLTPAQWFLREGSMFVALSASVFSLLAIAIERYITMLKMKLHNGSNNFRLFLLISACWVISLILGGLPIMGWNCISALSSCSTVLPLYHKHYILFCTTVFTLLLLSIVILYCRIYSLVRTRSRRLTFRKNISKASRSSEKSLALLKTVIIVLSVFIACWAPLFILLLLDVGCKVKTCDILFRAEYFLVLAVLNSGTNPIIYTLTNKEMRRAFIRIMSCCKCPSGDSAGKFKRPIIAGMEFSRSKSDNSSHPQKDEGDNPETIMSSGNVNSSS

[5] = target: DNA dC->dU-editing enzyme APOBEC-3G (Homo sapiens, UniProt Q9HC16); assay: APOBEC3G deaminase inhibitors, SAR follow-up, biochemical, fluorescence, single-stranded DNA substrate (AID 602136); type: functional; conditions: read-out: IC50_Mean
Chain of DNA dC->dU-editing enzyme APOBEC-3G (Q9HC16 whole entry): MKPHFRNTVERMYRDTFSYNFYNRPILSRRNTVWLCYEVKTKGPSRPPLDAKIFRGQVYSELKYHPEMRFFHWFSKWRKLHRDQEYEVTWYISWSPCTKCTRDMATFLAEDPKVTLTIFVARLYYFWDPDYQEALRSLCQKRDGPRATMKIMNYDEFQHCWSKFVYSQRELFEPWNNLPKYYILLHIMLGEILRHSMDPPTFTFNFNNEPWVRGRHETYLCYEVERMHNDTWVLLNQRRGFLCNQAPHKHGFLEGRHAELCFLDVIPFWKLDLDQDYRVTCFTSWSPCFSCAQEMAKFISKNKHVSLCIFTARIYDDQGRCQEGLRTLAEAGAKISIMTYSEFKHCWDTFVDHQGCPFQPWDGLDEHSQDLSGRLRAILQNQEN

[6] = target: DNA dC->dU-editing enzyme APOBEC-3A (Homo sapiens, UniProt P31941); assay: SAR analysis of small molecule inhibitors of APOBEC3A DNA Deaminase via a fluorescence-based single-stranded DNA deaminase assay.; type: functional; conditions: read-out: IC50_Mean
Chain of DNA dC->dU-editing enzyme APOBEC-3A (P31941 whole entry): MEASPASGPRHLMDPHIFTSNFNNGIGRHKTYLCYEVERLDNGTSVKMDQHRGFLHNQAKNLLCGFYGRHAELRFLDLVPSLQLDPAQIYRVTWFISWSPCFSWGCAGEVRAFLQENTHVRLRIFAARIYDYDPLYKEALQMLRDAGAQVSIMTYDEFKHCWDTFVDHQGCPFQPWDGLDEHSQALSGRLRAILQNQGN

[7] = target: Apoptotic protease-activating factor 1 (Homo sapiens, UniProt O14727); assay: SAR analysis of small molecule inhibitors of Apaf-1 in a Fluorescent assay.; type: functional; conditions: read-out: IC50_Mean
[8] = target: Multidrug resistance protein CDR1 (Candida albicans, UniProt P43071); assay: CaCDR1 efflux pump inhibitors in yeast, dose response, S. cerevisiae AD1-8u, singleplex, Cherry Pick1 hits (AID 588606); type: functional
H4 = assay: Luminescence Cell-Based Dose Response HTS to Identify Activators of 5'UTR Stem-Loop Driven Prion Protein mRNA Translation in H4 Neuroglioblastoma Cells. [Related pubchem assays: 1829 (Project Summary), 1814 (Primary HTS)]; type: functional; conditions: Homo sapiens
[9] = Luminescence Cell-Based Dose Response HTS to Identify Activators of Luciferase Translation or Activity in H4 […] Cells. [Related pubchem assays: 1829 (Project Summary), 1814 (Primary HTS)]; type: functional
INS1 [10] = assay: protection from cytokine-induced mitochondrial depolarization, dose response, cell-based, INS-1E, JC-1 fluorescence ratio, dry powder (AID 488931); type: functional; conditions: Rattus norvegicus
INS1 [11] = assay: inhibitors of cytokine-induced nitrite release, dose response, cell-based, Griess absorbance, INS-1E, dry powder, set 2 (AID 488868); type: functional; conditions: Rattus norvegicus
INS1 [12] = assay: protection of INS-1E cells from cytokine death, dose response, ATP luminescence, dry powder (AID 488844); type: functional, cell-based; conditions: Rattus norvegicus
[13] = inhibitors of cytokine-induced nitrite release, dose response, cell-based, Griess absorbance, INS-1E, dry powder, set 3 (AID 488870); type: functional; conditions: Rattus norvegicus
[14] = target: Botulinum neurotoxin type A (Clostridium botulinum (strain Hall / ATCC 3502 / NCTC 13319 / Type A), UniProt P0DPI1); assay: High-throughput multiplex microsphere dose response for inhibitors of toxin protease, specifically Botulinum neurotoxin light chain A protease, compounds from Cherry Pick 02.; type: functional; conditions: read-out: EC50_MICROM
Chain of Botulinum neurotoxin type A (P0DPI1 2-448 limits assumed): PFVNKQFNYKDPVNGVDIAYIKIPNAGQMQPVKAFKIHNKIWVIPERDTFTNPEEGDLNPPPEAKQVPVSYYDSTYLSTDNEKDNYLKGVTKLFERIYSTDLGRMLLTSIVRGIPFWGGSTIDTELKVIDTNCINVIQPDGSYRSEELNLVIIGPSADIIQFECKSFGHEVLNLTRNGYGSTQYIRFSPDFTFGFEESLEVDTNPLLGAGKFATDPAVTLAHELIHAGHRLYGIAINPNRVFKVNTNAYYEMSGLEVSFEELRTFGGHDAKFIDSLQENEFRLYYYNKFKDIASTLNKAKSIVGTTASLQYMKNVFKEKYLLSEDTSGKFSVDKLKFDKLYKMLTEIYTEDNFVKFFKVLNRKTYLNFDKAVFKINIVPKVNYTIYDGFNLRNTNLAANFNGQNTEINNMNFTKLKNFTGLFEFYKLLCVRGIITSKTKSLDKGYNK

[15] = target: Latent membrane protein 1 (Human herpesvirus 4 (strain B95-8), UniProt P03230); assay: TES1-eGFP NF-kB reporter inhibition versus Tet-On dsRED, dose response, selectivity assay for LMP1 NF-kB inhibitor project, imaging, HEK293T, dual-color eGFP/dsRED, cherry-picks (AID 588398); type: functional, cell-based
Chain of Latent membrane protein 1 (P03230 whole entry): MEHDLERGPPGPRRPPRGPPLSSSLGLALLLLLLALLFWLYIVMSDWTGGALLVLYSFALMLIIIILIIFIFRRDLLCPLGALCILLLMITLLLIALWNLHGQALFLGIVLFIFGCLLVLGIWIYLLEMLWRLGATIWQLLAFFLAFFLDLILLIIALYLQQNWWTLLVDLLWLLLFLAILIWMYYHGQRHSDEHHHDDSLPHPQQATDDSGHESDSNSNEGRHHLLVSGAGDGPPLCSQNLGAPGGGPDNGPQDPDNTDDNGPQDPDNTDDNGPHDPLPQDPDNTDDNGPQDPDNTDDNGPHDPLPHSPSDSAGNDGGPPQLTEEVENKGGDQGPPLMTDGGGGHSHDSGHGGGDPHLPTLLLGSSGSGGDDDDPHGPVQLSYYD

HEK293 = assay: inhibitors of LMP1-driven NF-kB reporter, dose response, cell-based, HEK293, luciferase, cherry-pick (AID 588343); type: functional; conditions: Homo sapiens
[16] = target: Photoreceptor-specific nuclear receptor (Homo sapiens, UniProt Q9Y5X4); type: functional, cell-based;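 note: CHO-S cells with Gal4-NCOR and VP16-NR2E3 two-hybrid luciferase reporter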
Chain of Photoreceptor-specific nuclear receptor (Q9Y5X4 whole entry, the tested form may be a part): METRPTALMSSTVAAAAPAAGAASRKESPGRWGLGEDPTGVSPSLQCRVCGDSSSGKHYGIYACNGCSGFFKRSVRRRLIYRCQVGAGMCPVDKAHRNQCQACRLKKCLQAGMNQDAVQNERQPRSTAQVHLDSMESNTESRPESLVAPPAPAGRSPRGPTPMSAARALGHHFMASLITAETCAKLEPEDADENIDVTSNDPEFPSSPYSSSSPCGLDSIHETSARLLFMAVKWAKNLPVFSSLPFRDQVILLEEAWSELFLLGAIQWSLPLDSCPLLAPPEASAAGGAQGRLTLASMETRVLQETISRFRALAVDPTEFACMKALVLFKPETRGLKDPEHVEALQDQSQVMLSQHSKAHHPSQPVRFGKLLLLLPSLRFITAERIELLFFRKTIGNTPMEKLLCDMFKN

[17] = target: Dual specificity protein kinase CLK4 (Homo sapiens, UniProt Q9HAZ1); type: functional
Chain of Dual specificity protein kinase CLK4 (Q9HAZ1 whole entry): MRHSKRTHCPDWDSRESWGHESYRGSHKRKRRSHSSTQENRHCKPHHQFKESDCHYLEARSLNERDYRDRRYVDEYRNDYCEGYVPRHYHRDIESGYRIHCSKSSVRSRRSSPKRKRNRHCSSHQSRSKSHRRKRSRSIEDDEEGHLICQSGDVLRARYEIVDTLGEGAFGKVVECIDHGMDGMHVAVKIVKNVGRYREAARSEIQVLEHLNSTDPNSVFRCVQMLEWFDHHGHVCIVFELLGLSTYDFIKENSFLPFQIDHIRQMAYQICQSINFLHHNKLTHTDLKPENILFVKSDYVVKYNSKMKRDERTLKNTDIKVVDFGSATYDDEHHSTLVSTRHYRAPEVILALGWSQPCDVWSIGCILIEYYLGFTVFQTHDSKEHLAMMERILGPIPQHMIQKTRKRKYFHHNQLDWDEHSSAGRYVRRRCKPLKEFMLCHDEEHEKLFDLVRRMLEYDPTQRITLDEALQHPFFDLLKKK

Focal adhesion kinase 1 = Focal adhesion kinase 1 (Homo sapiens, UniProt Q05397); type: functional;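 note: measured as one member of a kinome panel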
Chain of Focal adhesion kinase 1 (Q05397 whole entry, canonical isoform): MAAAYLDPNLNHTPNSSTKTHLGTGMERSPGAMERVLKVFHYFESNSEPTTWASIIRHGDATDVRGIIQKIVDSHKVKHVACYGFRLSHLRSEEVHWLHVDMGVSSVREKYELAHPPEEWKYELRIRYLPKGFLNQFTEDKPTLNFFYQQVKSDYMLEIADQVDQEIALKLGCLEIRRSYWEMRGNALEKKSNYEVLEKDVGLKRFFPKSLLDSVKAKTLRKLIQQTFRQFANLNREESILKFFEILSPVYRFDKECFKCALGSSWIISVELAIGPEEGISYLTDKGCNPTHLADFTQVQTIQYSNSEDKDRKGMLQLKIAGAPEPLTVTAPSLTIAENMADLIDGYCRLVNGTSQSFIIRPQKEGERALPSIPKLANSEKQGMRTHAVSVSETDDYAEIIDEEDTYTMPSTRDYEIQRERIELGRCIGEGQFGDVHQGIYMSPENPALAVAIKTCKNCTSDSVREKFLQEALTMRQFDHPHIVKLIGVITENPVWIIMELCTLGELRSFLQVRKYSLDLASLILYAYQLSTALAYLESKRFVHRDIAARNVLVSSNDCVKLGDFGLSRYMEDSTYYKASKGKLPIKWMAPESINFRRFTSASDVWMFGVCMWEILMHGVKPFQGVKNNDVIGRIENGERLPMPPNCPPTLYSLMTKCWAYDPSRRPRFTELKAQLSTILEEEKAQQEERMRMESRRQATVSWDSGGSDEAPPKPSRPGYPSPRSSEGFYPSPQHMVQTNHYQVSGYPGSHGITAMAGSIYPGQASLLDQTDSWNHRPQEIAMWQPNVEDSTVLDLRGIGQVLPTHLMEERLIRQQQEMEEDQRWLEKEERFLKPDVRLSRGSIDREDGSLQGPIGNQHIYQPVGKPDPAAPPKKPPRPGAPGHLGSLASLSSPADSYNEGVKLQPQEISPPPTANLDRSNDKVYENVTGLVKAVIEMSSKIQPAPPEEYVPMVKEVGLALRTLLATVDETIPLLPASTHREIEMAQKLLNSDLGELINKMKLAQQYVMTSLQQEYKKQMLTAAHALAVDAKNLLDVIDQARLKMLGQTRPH

[18] = target: Casein kinase I isoform alpha (Homo sapiens, UniProt P48729); type: functional

Chain of Sphingosine 1-phosphate receptor 5 (Q9H228 whole entry): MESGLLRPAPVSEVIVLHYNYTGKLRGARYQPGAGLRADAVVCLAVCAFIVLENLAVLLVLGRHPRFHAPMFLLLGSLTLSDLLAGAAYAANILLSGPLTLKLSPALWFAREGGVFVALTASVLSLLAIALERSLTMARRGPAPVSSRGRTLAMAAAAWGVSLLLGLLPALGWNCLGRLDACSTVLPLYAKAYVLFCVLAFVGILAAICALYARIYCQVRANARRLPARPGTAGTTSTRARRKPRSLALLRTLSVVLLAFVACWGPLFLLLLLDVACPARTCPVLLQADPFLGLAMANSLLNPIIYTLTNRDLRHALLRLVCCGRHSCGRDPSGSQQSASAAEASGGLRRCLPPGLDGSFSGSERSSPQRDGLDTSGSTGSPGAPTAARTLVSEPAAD

CC/N=C1/S/C(=C/c2cc(C)n(Cc3ccccc3)c2C)C(=O)N1CC
EC50 [1]: 0.0631 µM (active)
EC50 [2]: 3.28 µM (active)
EC50 [3]: 12.9 µM (inactive)
EC50 [4]: 0.185 µM (active)

O=C1NC(=S)NC(=O)C1=Cc1ccc2c(c1)CCN2Cc1ccccc1Cl
IC50 [5]: 77.5 µM (inactive)
IC50 [6]: 9.78 µM (active)

CCN(CC)CCOC(=O)c1ccc(N/C=C(\C#N)c2nc(-c3ccc(Cl)c(Cl)c3)cs2)cc1
IC50 [7]: 6.88 µM (active)

O=C(/C=C/c1ccccc1Cl)NCCc1ccccc1
EC50 [8]: 0.514 µM (active)
EC50 (H4): > 120 µM (not active)
EC50 [9]: 4.27 µM (active)

COc1ccc(S(=O)(=O)N(C)C[C@@H]2Oc3c(NC(=O)Nc4cccc5ccccc45)cccc3C(=O)N([C@@H](C)CO)C[C@H]2C)cc1F
AC50 (INS1 [10]): > 195 µM (inactive)
AC50 (INS1 [11]): 26.7 µM (active)
AC50 (INS1 [12]): 23.2 µM (active)
AC50 [13]: 60.8 µM (active)

Cc1onc(-c2ccccc2Cl)c1C(=O)NCc1ccc2c(c1)cc(C)n2C
EC50 [14]: 4.2 µM (active)

S=C(NN=Cc1ccccn1)Nc1ccccn1
AC50 [15]: 10.7 µM (active)
AC50 (HEK293): 21.5 µM (active)
IC50 [16]: 7.61 µM (active)

Cc1cc(C(C)Nc2ccccc2)c2nc(N3CCOCC3)cc(=O)n2c1 (stereo unspecified)
Ki [17]: 2.51 µM (active)
Ki (Focal adhesion kinase 1): 2.51 µM (active)
Ki [18]: 2 µM (active)
